According to ChEMBL document CHEMBL1151406, “An investigation of the antiviral activity of Podophyllum peltatum” (J Nat Prod, 1982):

Key:
[1] = test system: Human alphaherpesvirus 1; assay: Antiviral activity against HSV1 infected in african green monkey Vero cells assessed as plaque formation at 1 uM after 4 days by neutral red assay relative to control; type: functional
[2] = test system: Measles morbillivirus; assay: Antiviral activity against measles virus infected in african green monkey Vero cells assessed as inhibition of virus-induced cytopathic effect at 1 uM; type: functional; set-up: scale not given: the % may be the effect or the level left
[3] = Cytotoxicity against african green monkey Vero cells assessed as cell viability at 1 uM by trypan blue exclusion assay; type: cell-based; settings: chlorocebus sabaeus, read-out: Activity
[4] = test system: Vero; assay: Cytotoxicity against african green monkey Vero cells assessed as cell rounding at 1 uM; type: cell-based; settings: chlorocebus sabaeus
[5] = test system: Measles morbillivirus; assay: Antiviral activity against measles virus infected in african green monkey Vero cells assessed as cell rounding at 1 uM; type: functional
[6] = test system: Measles morbillivirus; assay: Antiviral activity against measles virus infected in african green monkey Vero cells assessed as plaque formation at 1 uM after 5 days by neutral red assay relative to control; type: functional

Structure (SMILES) | Activity [1] | Activity [2] | viability at 1 µM [3] | Activity [4] | Activity [5] | Activity [6]
COc1cc([C@@H]2c3cc4c(c(O)c3C[C@H]3COC(=O)[C@@H]32)OCO4)cc(OC)c1O | 31.1% | 25% | 91.9% | 5% | >95% | 47.5%
COc1cc([C@@H]2c3cc4c(cc3[C@H](O)[C@H]3COC(=O)[C@@H]23)OCO4)cc(OC)c1OC [AXL-1717] | 84.4% | 100% | 89.9% | 15% | 5% | 41.5%
COc1cc([C@@H]2c3cc4c(c(O)c3C[C@H]3COC(=O)[C@@H]32)OCO4)cc(OC)c1OC [BETA-PELTATIN A] | 21.7% | 100% | 85.4% | 5% | 50% | 15.1%
COc1cc([C@@H]2c3cc4c(cc3C[C@H]3COC(=O)[C@@H]32)OCO4)cc(OC)c1OC [DESOXYPODOPHYLLOTOXIN] | 16.2% | 70% | 90.7% | 30% | 50% | 19.8%
COc1cc([C@@H]2c3cc4c(cc3[C@H](O)[C@H]3COC(=O)[C@H]23)OCO4)cc(OC)c1OC [PODOFILOX] | 11.7% | 25% | 91.7% | 80% | >95% | 0.9%
